Reference: patent publication US20250332139A1, “PS[…] AND THEIR USE FOR TREATING […] AND NE[…] DISORDERS” (Transcend Therapeutics, Inc., priority 2021, published 2025)

What was measured:
[1] = tested on: Sprague Dawley rats; assay: Forced Swim Test (FST); format: in vivo, rat
Description: The Forced Swim Test (FST) is a classic, and the most used preclinical behavioral assay to screen compounds with antidepressant-like activity and has high predictive and face validity (Porsolt et al. (1977) Nature 266:730; Borsini and Meli (1988) Psychopharmacology 94:147). The premise of the FST is that when rats are placed into a cylinder filled with water, they will initially try to escape, but over time will become immobile. This increased immobility reflects behavioral despair, modeling a depressive-like state.
Forced Swim Test (FST): In the FST trial, rats were placed in a circular plexiglass container filled with water, with no means of escape. Water temperature was maintained at 22-25° C. and changed for every animal. After an acclimation period, rats were timed for inactivity (failure to struggle), activity, swim time and climbing time. Day 1 consisted of a 15 min acclimation trial, and Day 2 (24 h later) consisted of the 5 min test. A time sampling procedure was employed where animals were observed every 5 sec and scored for immobility, swimming, or climbing. Fluoxetine (10 mg/kg, IP, Sigma Aldrich) or 0.9% sterile saline vehicle (vehicle 3X group) were administered 23.5, 5, and 1 h before testing in the FST. […] The experimenter was blinded to treatment.
Forced Swim Test: In the FST trial, rats were placed in a circular plexiglass container filled with water, with no means of escape. Water temperature was maintained at 22-25° C. and changed for every animal. After an acclimation period, rats were timed for inactivity (failure to struggle), activity, swim time and climbing time. Day 1 consisted of a 15 min acclimation trial, and Day 2 (24 h later) consisted of the 5 min test. A time sampling procedure was employed where animals were observed every 5 sec and scored for immobility, swimming, or climbing. Fluoxetine (10 mg/kg, IP, Sigma Aldrich) or 0.9% sterile saline vehicle (vehicle 3X group) were administered 23.5, 5, and 1 h before testing in the FST. 2C-B (2.5, 10, or 20 mg/kg, IP, Cayman Chemical) or 0.9% saline vehicle (vehicle 1X group) were administered 30 min prior to FST testing. The experimenter was blinded to treatment.
Drug Treatment: Fluoxetine (10 mg/kg, IP, Sigma Aldrich) or 0.9% sterile saline vehicle were administered 23.5, 5, and 1 h before testing in the FST. […] Control animals received fluoxetine alone, methylone alone, or saline vehicle.
Forced Swim Test: In the FST trial, rats were placed in a circular plexiglass container filled with water, with no means of escape. Water temperature was maintained at 22-25° C. and changed for every animal. After an acclimation period, rats were timed for inactivity (failure to struggle), activity, swim time and climbing time. The experimenter and scorer were blind to treatment group. Day 1 consisted of a 15 min acclimation trial, and Day 2 (24 h later) consisted of the 5 min test. A time sampling procedure was employed where animals were observed every 5 sec and scored for immobility, swimming, or climbing.
The FST was performed and scored by an experimenter blind to treatment group according to standard protocols and based on a “modified FST” procedure (Slattery and Cryan (2012) Nat Protoc, 7:1009). Briefly, rats were placed in a circular plexiglass container (29.2 cm diameter, 49.5 cm height) filled with water to a depth of 30 cm so rats could not support themselves by touching the bottom of the tank. Water was maintained at 22-25° C. and was changed for every animal. Day 1 (Training) consisted of a 15 min acclimation trial, and Day 2 (Testing, 24 h later) consisted of the 5 min test. A time sampling procedure was employed where animals were observed every 5 seconds for the duration of the test session (60 counts or 5 minutes) and scored for immobility (defined as the failure to struggle), swimming (defined as a circular movement around the tank), or climbing (defined as an upwards escape behavior). […]

[2] = target: T1, 168 GPCRs (Homo sapiens, UniProt O95136); assay: β-arrestin GPCR screen (PathHunter/GPCRmax), agonist mode; format: cell-based; conditions: GPCR EDG5; Agonist mode; 10 uM
T1 construct: host or cells: PathHunter cell lines
Experimental: (§1) For agonist determination, cells were incubated with sample to induce response. […] Vehicle concentration was 1%.

[3] = target: T2, 168 GPCRs (Homo sapiens, UniProt O95977); assay: as above; format: cell-based; conditions: GPCR EDG6; Agonist mode; 10 uM
T2 construct: host or cells: PathHunter cell lines
Experimental: as §1

[4] = target: T3, 168 GPCRs (Homo sapiens, UniProt P11229); assay: as above; format: cell-based; conditions: CHRM1, Agonist
T3 construct: host or cells: PathHunter cell lines
Experimental: as §1

[5] = target: T4, 168 GPCRs (Homo sapiens, UniProt P21917); assay: as above; format: cell-based; conditions: GPCR DRD4; Agonist mode; 10 uM
T4 construct: host or cells: PathHunter cell lines
Experimental: as §1

[6] = target: T5, 168 GPCRs (Homo sapiens, UniProt P25025); assay: as above; format: cell-based; conditions: GPCR CXCR2; Agonist mode; 10 uM
T5 construct: host or cells: PathHunter cell lines
Experimental: as §1

[7] = target: T6, 168 GPCRs (Homo sapiens, UniProt P33032); assay: as above; format: cell-based
T6 construct: host or cells: PathHunter cell lines
Experimental: as §1

[8] = target: T7, 168 GPCRs (Homo sapiens, UniProt P48145); assay: as above; format: cell-based; conditions: GPCR NPBWR1; Agonist mode; 10 uM
T7 construct: host or cells: PathHunter cell lines
Experimental: as §1

[9] = target: T8, 168 GPCRs (Homo sapiens, UniProt P48546); assay: as above; format: cell-based
T8 construct: host or cells: PathHunter cell lines
Experimental: as §1

[10] = target: T9, 168 GPCRs (Homo sapiens, UniProt P49682); assay: as above; format: cell-based; conditions: GPCR CXCR3; Agonist mode; 10 uM
T9 construct: host or cells: PathHunter cell lines
Experimental: as §1

[11] = target: T10, 168 GPCRs (Homo sapiens, UniProt P51582); assay: as above; format: cell-based
T10 construct: host or cells: PathHunter cell lines
Experimental: as §1

[12] = target: T11, 168 GPCRs (Homo sapiens, UniProt P51677); assay: as above; format: cell-based; conditions: CCR3; Agonist; 1 uM
T11 construct: host or cells: PathHunter cell lines
Experimental: as §1

[13] = target: T12, 168 GPCRs (Homo sapiens, UniProt P51679); assay: as above; format: cell-based; conditions: CCR4; Agonist; 10 uM
T12 construct: host or cells: PathHunter cell lines
Experimental: as §1

T8 sequence (P48546 22-466): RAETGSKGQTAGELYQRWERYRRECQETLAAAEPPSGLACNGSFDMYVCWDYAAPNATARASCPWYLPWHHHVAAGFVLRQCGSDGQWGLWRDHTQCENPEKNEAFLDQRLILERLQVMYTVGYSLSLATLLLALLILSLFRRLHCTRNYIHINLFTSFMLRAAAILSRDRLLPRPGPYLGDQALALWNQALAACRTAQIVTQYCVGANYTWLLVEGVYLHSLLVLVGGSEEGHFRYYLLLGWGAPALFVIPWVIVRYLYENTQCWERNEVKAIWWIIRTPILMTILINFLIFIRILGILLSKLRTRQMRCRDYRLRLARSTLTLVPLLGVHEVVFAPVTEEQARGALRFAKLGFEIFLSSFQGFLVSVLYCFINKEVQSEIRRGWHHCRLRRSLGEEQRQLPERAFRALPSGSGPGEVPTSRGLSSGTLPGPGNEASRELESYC
T6 sequence (P33032 whole entry): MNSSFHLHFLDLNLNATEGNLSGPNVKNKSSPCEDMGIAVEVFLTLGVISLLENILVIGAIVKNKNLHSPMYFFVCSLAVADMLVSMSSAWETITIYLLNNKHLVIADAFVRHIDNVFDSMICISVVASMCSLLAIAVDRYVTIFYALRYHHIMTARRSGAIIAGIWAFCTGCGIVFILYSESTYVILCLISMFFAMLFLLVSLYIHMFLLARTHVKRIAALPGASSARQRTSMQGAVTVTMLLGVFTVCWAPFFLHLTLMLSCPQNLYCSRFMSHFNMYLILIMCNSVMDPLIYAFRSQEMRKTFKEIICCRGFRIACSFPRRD
T10 sequence (P51582 whole entry): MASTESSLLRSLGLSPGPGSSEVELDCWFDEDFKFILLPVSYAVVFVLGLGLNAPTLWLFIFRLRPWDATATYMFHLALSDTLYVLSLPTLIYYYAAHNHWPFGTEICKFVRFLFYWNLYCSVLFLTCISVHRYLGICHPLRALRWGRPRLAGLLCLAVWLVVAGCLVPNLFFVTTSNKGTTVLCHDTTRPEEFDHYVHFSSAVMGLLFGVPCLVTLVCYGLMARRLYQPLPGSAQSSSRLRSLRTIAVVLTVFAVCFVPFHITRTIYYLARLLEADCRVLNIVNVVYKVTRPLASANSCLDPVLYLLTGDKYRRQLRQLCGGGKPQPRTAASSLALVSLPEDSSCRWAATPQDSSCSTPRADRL
T3 sequence (P11229 whole entry): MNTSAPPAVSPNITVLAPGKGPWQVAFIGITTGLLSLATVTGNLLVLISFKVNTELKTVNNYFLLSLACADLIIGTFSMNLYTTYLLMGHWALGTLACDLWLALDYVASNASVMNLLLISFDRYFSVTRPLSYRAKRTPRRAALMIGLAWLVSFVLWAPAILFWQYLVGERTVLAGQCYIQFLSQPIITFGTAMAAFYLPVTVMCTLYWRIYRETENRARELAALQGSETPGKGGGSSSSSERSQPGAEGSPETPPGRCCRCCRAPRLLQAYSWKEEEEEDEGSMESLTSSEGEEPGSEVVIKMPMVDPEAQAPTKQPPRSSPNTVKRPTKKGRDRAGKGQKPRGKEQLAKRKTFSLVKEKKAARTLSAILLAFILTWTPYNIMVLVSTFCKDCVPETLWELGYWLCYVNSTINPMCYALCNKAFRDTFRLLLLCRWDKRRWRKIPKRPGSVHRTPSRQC
T1 sequence (O95136 whole entry): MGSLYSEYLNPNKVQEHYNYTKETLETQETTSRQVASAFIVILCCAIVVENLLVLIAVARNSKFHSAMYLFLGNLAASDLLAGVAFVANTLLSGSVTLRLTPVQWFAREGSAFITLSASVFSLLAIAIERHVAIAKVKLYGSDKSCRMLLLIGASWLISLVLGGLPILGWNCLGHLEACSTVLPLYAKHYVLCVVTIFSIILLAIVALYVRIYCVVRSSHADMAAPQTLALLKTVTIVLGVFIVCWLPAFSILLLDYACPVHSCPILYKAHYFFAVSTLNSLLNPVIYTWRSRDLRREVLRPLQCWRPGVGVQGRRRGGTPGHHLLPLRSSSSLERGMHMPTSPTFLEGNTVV
T12 sequence (P51679 whole entry): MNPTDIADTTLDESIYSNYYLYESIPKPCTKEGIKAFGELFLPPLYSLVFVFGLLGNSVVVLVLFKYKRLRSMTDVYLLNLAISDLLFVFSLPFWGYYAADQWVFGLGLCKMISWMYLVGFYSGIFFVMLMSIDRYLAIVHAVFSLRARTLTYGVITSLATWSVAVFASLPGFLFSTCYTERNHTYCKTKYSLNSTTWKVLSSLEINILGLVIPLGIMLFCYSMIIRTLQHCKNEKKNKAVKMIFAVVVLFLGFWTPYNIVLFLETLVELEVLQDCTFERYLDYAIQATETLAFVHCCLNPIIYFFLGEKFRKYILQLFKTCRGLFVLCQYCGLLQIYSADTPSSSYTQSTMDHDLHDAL
T4 sequence (P21917 whole entry): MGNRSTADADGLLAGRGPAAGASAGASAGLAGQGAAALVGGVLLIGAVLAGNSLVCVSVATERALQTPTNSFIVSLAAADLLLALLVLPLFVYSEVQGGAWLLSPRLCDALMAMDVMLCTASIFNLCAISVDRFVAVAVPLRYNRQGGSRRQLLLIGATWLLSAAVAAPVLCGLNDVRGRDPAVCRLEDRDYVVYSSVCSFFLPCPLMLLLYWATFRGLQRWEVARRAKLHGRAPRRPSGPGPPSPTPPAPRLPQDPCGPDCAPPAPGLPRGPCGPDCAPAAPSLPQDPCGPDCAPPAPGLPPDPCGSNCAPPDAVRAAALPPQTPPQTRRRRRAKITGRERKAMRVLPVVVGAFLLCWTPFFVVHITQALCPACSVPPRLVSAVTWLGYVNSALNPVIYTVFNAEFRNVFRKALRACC
T9 sequence (P49682 whole entry): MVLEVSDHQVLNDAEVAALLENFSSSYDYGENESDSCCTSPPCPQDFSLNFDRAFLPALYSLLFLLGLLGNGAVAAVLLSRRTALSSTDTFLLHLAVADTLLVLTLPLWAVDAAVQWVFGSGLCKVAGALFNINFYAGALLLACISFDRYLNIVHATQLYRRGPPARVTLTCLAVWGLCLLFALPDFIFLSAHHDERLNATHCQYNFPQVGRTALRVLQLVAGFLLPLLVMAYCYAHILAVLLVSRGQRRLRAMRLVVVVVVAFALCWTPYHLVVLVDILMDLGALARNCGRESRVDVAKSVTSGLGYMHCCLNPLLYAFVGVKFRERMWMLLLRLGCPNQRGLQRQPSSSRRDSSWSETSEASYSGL
T2 sequence (O95977 whole entry): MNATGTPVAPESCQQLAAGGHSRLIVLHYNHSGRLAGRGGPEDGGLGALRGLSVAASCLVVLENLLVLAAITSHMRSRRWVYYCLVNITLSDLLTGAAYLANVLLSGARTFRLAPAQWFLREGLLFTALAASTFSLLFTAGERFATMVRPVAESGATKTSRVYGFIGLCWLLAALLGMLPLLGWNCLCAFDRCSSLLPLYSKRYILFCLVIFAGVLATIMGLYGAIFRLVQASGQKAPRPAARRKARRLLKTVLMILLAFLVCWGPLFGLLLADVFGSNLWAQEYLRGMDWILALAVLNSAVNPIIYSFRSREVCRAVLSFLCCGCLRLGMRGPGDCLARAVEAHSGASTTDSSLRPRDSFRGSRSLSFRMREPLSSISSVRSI
T5 sequence (P25025 whole entry): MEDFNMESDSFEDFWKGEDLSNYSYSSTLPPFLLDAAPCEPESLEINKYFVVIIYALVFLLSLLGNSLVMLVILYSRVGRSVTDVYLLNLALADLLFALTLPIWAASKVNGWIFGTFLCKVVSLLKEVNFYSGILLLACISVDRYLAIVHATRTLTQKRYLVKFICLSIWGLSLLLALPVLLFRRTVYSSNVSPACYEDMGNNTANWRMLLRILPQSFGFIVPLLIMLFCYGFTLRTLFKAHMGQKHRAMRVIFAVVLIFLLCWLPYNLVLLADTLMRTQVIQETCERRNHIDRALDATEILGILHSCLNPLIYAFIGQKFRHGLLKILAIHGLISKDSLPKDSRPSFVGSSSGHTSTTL
T11 sequence (P51677 whole entry): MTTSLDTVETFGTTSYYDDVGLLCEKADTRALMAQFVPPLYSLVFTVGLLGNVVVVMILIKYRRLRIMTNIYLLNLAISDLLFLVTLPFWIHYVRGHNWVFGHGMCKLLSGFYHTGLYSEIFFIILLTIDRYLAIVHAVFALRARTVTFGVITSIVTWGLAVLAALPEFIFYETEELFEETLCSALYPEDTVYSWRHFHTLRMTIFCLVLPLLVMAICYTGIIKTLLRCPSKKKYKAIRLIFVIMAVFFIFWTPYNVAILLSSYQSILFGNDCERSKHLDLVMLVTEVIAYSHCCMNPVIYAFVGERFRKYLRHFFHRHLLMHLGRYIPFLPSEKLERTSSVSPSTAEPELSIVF
T7 sequence (P48145 whole entry): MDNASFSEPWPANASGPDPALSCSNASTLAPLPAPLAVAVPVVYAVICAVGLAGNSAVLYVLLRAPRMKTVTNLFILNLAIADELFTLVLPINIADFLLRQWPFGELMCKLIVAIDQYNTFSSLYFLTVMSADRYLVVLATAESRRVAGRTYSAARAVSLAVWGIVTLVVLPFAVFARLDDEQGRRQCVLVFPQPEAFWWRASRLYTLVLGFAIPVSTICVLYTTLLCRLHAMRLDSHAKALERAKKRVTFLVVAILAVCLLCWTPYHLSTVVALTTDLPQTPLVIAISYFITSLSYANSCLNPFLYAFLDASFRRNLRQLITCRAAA

## CNC(C)C(=O)c1ccc2c(c1)OCO2 (stereo not shown) [methylone, 3,4-methylenedioxy-N-methylcathinone]
[1]; 15 mg/kg PO, single dose 2 hours before test, vs vehicle
  antidepressant-like effect in FST: significant antidepressant-like effect
[1]; Example 8, Methylone 5 or 15 mg/kg IP
  climbing behavior: significantly increased climbing behavior
[1]; methylone 5-30 mg/kg IP, 30 min before test
  climbing: only increased at the lowest dose
[1]; methylone doses of 10 mg/kg or more
  effectiveness in FST: maximally effective
[1]; mid and high doses of methylone IP, 30 min before test
  swimming: significantly increased swimming
[1]; single dose 5, 10, 15, 20, 30 mg/kg IP 30 min before test, vs saline vehicle
  immobility: significantly reduced immobility
[2]
  activity at 10 µM: -3.7%
[3]
  activity at 10 µM: -0.3%
[4]; 1 uM
  activity at 1 µM: -3.1%
[4]; 10 uM
  activity at 10 µM: -8.5%
[5]
  activity at 10 µM: -9.4%
[6]
  activity at 10 µM: -2.6%
[7]; GPCR MC5R, Agonist mode, 10 uM
  activity at 10 µM: -8.9%
[7]; MC5R, Agonist, 1 uM
  activity at 1 µM: ~-7%
[8]
  activity at 10 µM: ~-1%
[9]; GIPR, Agonist, 1 uM
  activity at 1 µM: ~-2%
[9]; GPCR GIPR, Agonist mode, 10 uM
  activity at 10 µM: ~-5%
[10]
  activity at 10 µM: ~1%
[11]; GPCR P2RY4, Agonist mode, 10 uM
  activity at 10 µM: -4.1%
[11]; P2RY4, Agonist, 1 uM
  activity at 1 µM: ~-3%
[12]
  activity at 1 µM: -0.7%
[13]
  activity at 10 µM: -1.4%
